Earlier results, collected in patent publication US20090004290A1, “RED YEAST RICE COMPOUND FOR CANCER CHEMOPREVENTION” (priority 2007, published 2009).

How the values were obtained:
lung cancer [1] = details: secondary endpoint; follow up of over 1300 participants; selenium supplementation
lung cancer [2] = details: interim analysis of over 3200 participants
lung cancer [3] = test system: lung cancer
[4] = test system: total, breast, colorectal, or other site-specific cancers; details: 100 mg alternate day, average 10 years of treatment, women

Compound: [Se] [selenium, Selenium]
- hazard ratio (lung cancer) (lung cancer [1]): 0.56
- trend of lung cancer with supplementation / dietary intake (lung cancer [2]): significant inverse trend

Compound: [Cu] [copper, Copper]
- trend of lung cancer with supplementation / dietary intake (lung cancer [2]): protective trend

Compound: Cc1c(C)c2c(c(C)c1O)CC[C@@](C)(CCC[C@H](C)CCC[C@H](C)CCCC(C)C)O2 [Alpha-tocopherol]
- mortality due to hemorrhagic stroke (lung cancer [3]; participants that received Alpha-tocopherol): higher mortality
- decrease incidence of lung cancer (lung cancer [3]; participants with highest blood levels vs quartile with lowest levels): 19%

Compound: [Zn] [zinc, Zinc]
- trend of lung cancer with supplementation / dietary intake (lung cancer [2]): significant chemoprotective trend

Compound: CC(=O)Oc1ccccc1C(=O)O [aspirin, acetylsalicylic acid]
- risk of total, breast, colorectal, or other site-specific cancers [4]: does not lower risk
